Measured values reported in patent publication USRE43712E1, “Methods for assaying for antidepressant therapy markers” (The Board of Trustees of the Uniersity of Illinois, priority 2000, dated 2012).

How the values were obtained:
adenylyl cyclase = assay: Adenylyl cyclase activity in sucrose density gradient fractions of Triton X-100-solubilized C6-2B cells; format: cell-based; settings: 10 μM desipramine-treated C6-2B cells
Protocol: C6-2B cells treated as described above were used to prepare Triton-insoluble, caveolin-enriched membrane fractions by the procedure of Li et al. [J. Biol. Chem., 270:15693-15701; 1995] with minor modifications. In brief, C6-2B cells were harvested into 0.75 ml of HEPES buffer (10 mM HEPES, pH 7.5, 150 mM NaCl, 1 mM DTT, 0.3 mM PMSF) containing 1% Triton X-100. Homogenization was carried out with 10 strokes of a Potter-Elvehjem homogenizer. The homogenate was adjusted to 40% sucrose by the addition of an equal volume of 80% sucrose prepared in HEPES buffer and placed at the bottom of an ultracentrifuge tube. A step gradient containing 30, 15, and 5% sucrose was formed above the homogenate and centrifuged at 50,000 rpm for 20 h in an SW65 rotor (240,000 g). Two or three opaque bands confined between the 15 and 30% sucrose layers were harvested, diluted threefold with HEPES buffer, and pelleted in a microcentrifuge at 16,000 g. The pellet was resuspended in HEPES buffer and identified as the Triton-insoluble fraction. The 40% sucrose region of the gradient was saved as the Triton-soluble fraction. In separate experiments, the same conditions were used, but instead of isolating the three opaque bands, 100-μl fractions were collected and assayed for Gs content and adenylyl cyclase activity.
Adenylyl cyclase was assayed as described previously [Rasenick et al., Brain Res., 488:105-113; 1989]. […]

Giα = assay: Detergent extraction of Giα from C6-2B glioma membranes; format: cell-based; settings: C6-2B cells, 10 μM, 3 days; FIG. 4
Protocol: Membrane proteins were extracted sequentially from C6-2B or rat synaptic membranes as described [Yan et al., J. Neurochem., 66:1489-1495; 1996]. These membranes were stirred on ice in HEPES (15 mM, pH 7.4) containing 1% Triton X-100 for 60 min followed by centrifugation at 100,000 g for 60 min at 4° C. The supernatant was reserved (Triton X-100 extract), and the resulting pellet was resuspended in Tris (15 mM, pH 7.4) containing 1.4% Triton X-114 and 150 mM NaCl. The solution was stirred for 60 min at 4° C. and centrifuged for 30 min at 100,000 g in the cold. The supernatant was saved (Triton X-114 extract). These supernatants and remaining pellet (remainder) were subjected to sodium dodecyl sulfate (SDS)-polyacrylamide gel electophoresis (PAGE) using 10% gels. […]
Rat cortex membrane, C6-2B cell membranes, or Triton extracts of each membrane preparation were subjected to SDS-PAGE followed by electrotransfer to polyvinylidene difluoride (PVDF) membrane. […] Immunoreactivity was detected with an enhanced chemiluminescence (ECL) western blot detection system (Amersham) in accord with the manufacturer's instructions. The developed autoradiographs were analyzed by densitometry.
Experiments were conducted (as described in Example 1) to ascertain the effect of antidepressant therapy on the mobility of Giα from C6-2B glioma cells. […] Immunoreactivity was detected with an ECL western blot detection system.

Row | Structure (SMILES) | Basal adenylyl cyclase activity (adenylyl cyclase; gradient fractions) | Forskolin-stimulated adenylyl cyclase activity compared with control (adenylyl cyclase; gradient fractions 11 and 12, 10^−4 M forskolin) | Migration of Giα to a less hydrophobic membrane fraction (Giα)
1 | CNCCCN1c2ccccc2CCc2ccccc21 [Desipramine, desipramine] | unchanged | almost a twofold increase | –
2 | CNCCC(Oc1ccc(C(F)(F)F)cc1)c1ccccc1 (stereo not drawn) [Fluoxetine, fluoxetine] | – | – | did not migrate to a less hydrophobic membrane fraction
